The term IC50 denotes the concentration at which inhibition is half-maximal.

“Also recorded” adds a separate entry of the source. Read-outs that look alike come from different tables or passages of the source.

The text below walks through data of PMC9920567, “Discovery of Bis-Imidazoline Derivatives as New CXCR4 Ligands” (Molecules, 2023).

The target of experiment [1] is T1, CXCR4 (Homo sapiens, UniProt P61073). The experiment can be described thus: HTRF Tag-lite primary screening: red-CXCL12 binding to HEK293 cells expressing ST-CXCR4. The conditions noted are these: single dose 6.6 µg/mL (compound final concentration in µM in brackets), HTRF ratio of compound divided by that of AMD3100 15 µM, 20 nM red-CXCL12, hit < 1.3. An excerpt: As a starting point of this study, we set up a high-throughput screening of 6851 compounds available at the time from the CERMN (Centre d’Etude et de Recherche sur le Médicament de Normandie) chemical library for their ability to interact with CXCR4 (see Section 3.3 for details). We applied a homogeneous cell-based binding assay using Homogeneous Time-Resolved Fluorescence resonance energy transfer (HTRF) Tag-lite technology. […] We investigated the capacity of the compounds to inhibit energy transfer between the Lumi4-Tb donor and acceptor red-CXCL12, which results in a decrease in the HTRF signal (i.e., the ratio between the acceptor and donor fluorescence signals at 665 and 620 nm, respectively). […] Each 384-well plate was analyzed independently. First, using negative and positive controls, the value of the Z′ factor [52] was determined. […]
T1 sequence (P61073 whole entry): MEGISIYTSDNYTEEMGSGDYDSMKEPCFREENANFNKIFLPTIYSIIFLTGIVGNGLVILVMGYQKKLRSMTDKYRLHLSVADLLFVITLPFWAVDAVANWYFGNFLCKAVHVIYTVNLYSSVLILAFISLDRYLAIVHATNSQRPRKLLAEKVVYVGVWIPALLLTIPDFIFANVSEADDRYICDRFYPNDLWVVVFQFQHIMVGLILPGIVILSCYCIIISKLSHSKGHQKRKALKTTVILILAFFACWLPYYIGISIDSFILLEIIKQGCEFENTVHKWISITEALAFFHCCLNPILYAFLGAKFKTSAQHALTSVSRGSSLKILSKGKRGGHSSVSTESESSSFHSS
All compounds are in DMSO at a concentration of 3.3 mg/mL (average concentration of 9.85 ± 3.7 mM). […] After a 2 h incubation at 16 °C, the fluorescence emission was measured at 620 nm and 665 nm using an excitation wavelength at 343 nm on a Safire2 (Tecan, Männedorf, Switzerland) microplate reader. The HTRF ratio was defined as following: Ratio = (Fluorescence intensity at 665 nm/Fluorescence intensity at 620 nm) × 10^4. […]
For orientation: In TR-FRET formats the signal depends on donor and acceptor labels being close together.

Experiment [2] has as its target T1, CXCR4. As to the kind of experiment: HTRF dilution series assay on CXCR4 (displacement of red-CXCL12). Type of experiment: binding. The conditions noted are these: for IC50: HEK293 ST-CXCR4 cells, red-CXCL12 20 nM, 2 h 16 °C, one-site competitive model, read-out: HTRF CXCR4-SDF1 IC50; for inhibition of HTRF at high concentrations: dilution series. On the procedure:
To obtain information on the structural requirements necessary for the interaction with CXCR4, we performed dilution series experiments (see Section 3.4.) by varying the concentrations of bis-imidazoline compounds in the HTRF assay used for the screening campaign (Table 1 and Figure 1A).
A three-fold serial dilution in DMSO was performed for each compound. Each concentration was tested in duplicate. For these experiments, Tag-lite CXCR4 and Tag-lite CXCR7 cell lines (5000 cells per well) were used. […] The IC50 values were determined with the Prism Software version 9 (Graph-Pad Software, San Diego, USA) using a one-site competitive binding model.
Data points are means ± SEM for three independent experiments.

The subject of experiment [3] is CXCR4-using HIV-1 strains. In kind it is cell-based.
A further experiment has as its system HIV-1 NL4-3 Env. The experiment can be described thus: microbe, parasite or virus in culture. In kind it is cell-based. As to conditions: Human immunodeficiency virus 1, NL43, 48 h, read-out: extrapolated IC50, infection with NL4-3 Env.
In another experiment the test system is HIV-1 X4-28 Env. As to the kind of experiment: microbe, parasite or virus in culture. Type of experiment: cell-based. The conditions noted are these: Human immunodeficiency virus 1, 48 h, read-out: extrapolated IC50, infection with X4-28 Env.
A further experiment has as its target endogenous CXCR4 (Homo sapiens, UniProt P61073). The experiment can be described thus: Displacement of 125I-labeled CXCL12 binding in blood mononuclear cells. As to conditions: blood mononuclear cells from a healthy donor, data not shown. (Loss of bound radioactivity is the signal in a displacement assay; it reports binding, not function.)
Where [4] appears, read: primary CD4+ T lymphocytes, NL4-3 and X4-28 Envs.

endogenous CXCR4, sequence (P61073 whole entry): as above

In the case of `C(CCCNC1=NCCN1)CCCNC1=NCCN1` [mr20346], the “HTRF CXCR4-SDF1 Relative HTRF Ratio” value on CXCR4 [1] is 1.87 (12.6). For the same molecule, at CXCR4 [2], the IC50 was 1.85 ± 0.93 µM.

With `C(CCCCNC1=NCCN1)CCCCNC1=NCCN1` [mr20348], the IC50 on CXCR4 [2] was 6.62 ± 4.31 µM.

For `C(CCCCNC1=NCCN1)CCCNC1=NCCN1` [mr20347], at CXCR4 [2], the IC50 is 0.35 ± 0.09 µM and the “inhibition of HTRF at high concentrations” value (shortened to “inhibition of HTRF”) is listed as “fully inhibited HTRF”. Moreover, the anti-HIV-1 activity entry in experiment [3] (setting [4]) is “not and no effect”.

As for `C(CCCCCNC1=NCCN1)CCCCCNC1=NCCN1` [mr34200], the IC50 at CXCR4 [2] was 15.5 µM.

As for `C(CCCCCNC1=NCCN1)CCCCNC1=NCCN1` [mr20349], the IC50 at CXCR4 [2] is 0.47 ± 0.36 µM; in the experiment with HIV-1 NL4-3 Env, 30 µM; with HIV-1 X4-28 Env it was 1.1 µM. Moreover, on CXCR4 [2], the “inhibition of HTRF” value is “fully inhibited HTRF”. For the same molecule, in experiment [3] (setting [4]), the anti-HIV-1 activity result is “observed”. Besides, the “displacement of 125I-labeled CXCL12 binding” value on endogenous CXCR4 is “confirmed”.

In the case of `C(CCCNC1=NCCN1)CCNC1=NCCN1` [mr20345], the “HTRF CXCR4-SDF1 Relative HTRF Ratio” value on CXCR4 [1] is reported as 2.78 (13.0). Besides, on CXCR4 [2], the IC50 amounted to 40.9 ± 23 µM.

As to `c1cc(CN2CCCNCCNCCCNCC2)ccc1CN1CCCNCCNCCCNCC1` [AMD3100, reference compound], the anti-HIV-1 activity result in experiment [3] is “by far the most potent antiviral activity of all tested molecules”.

Take `C(CCCCCCNC1=NCCN1)CCCCCNC1=NCCN1` [mr20350]: the “inhibition of HTRF” value at CXCR4 [2] is given as “fully inhibited HTRF”. Besides, the anti-HIV-1 activity entry in experiment [3] (setting [4]) was “observed; also recorded: strongest anti-HIV-1 activity”. Moreover, the values for the IC50 in the experiment with HIV-1 NL4-3 Env and in the experiment on HIV-1 X4-28 Env were 2.6 µM and 0.72 µM, respectively.
